Results reported in PubChem BioAssay AID1963827 (Molecular Pharmacology Branch, DTP, NCI, 2024).

Tested on: 994946-033-R-J1-PDC complex spheroid viability
Test: Anticancer human tumor 994946-033-R-J1-PDC patient-derived melanoma cell line growth inhibition [POLQ]
Conditions: for IC50: curve of first compound; for viability, T/C: stronger effect = lower value
How it was run: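 Three-cell-type spheroids modelling solid tumor plus stroma served as the readout system; POL inhibitors were tested individually and in combination, concentration ranges set by clinical Cmax where known.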

[1] = second compound 0.0316 µM, first compound 0.0316 µM
[2] = second compound 0.0316 µM, first compound 0.1 µM
[3] = second compound 0.0316 µM, first compound 0.316 µM
[4] = second compound 0.0316 µM, first compound 1 µM
[5] = second compound 0.0316 µM, first compound 3.16 µM
[6] = second compound 0.0316 µM, first compound 10 µM
[7] = second compound 0.1 µM, first compound 0.0316 µM
[8] = second compound 0.1 µM, first compound 0.1 µM
[9] = second compound 0.1 µM, first compound 0.316 µM
[10] = second compound 0.1 µM, first compound 1 µM
[11] = second compound 0.1 µM, first compound 3.16 µM
[12] = second compound 0.1 µM, first compound 10 µM
[13] = second compound 0.316 µM, first compound 0.0316 µM
[14] = second compound 0.316 µM, first compound 0.1 µM
[15] = second compound 0.316 µM, first compound 0.316 µM
[16] = second compound 0.316 µM, first compound 1 µM
[17] = second compound 0.316 µM, first compound 3.16 µM
[18] = second compound 0.316 µM, first compound 10 µM
[19] = second compound 1 µM, first compound 0.0316 µM
[20] = second compound 1 µM, first compound 0.1 µM
[21] = second compound 1 µM, first compound 0.316 µM
[22] = second compound 1 µM, first compound 1 µM
[23] = second compound 1 µM, first compound 3.16 µM
[24] = second compound 1 µM, first compound 10 µM
[25] = second compound 3.16 µM, first compound 0.0316 µM
[26] = second compound 3.16 µM, first compound 0.1 µM
[27] = second compound 3.16 µM, first compound 0.316 µM
[28] = second compound 3.16 µM, first compound 1 µM
[29] = second compound 3.16 µM, first compound 3.16 µM
[30] = second compound 3.16 µM, first compound 10 µM
[31] = second compound 10 µM, first compound 0.0316 µM
[32] = second compound 10 µM, first compound 0.1 µM
[33] = second compound 10 µM, first compound 0.316 µM
[34] = second compound 10 µM, first compound 1 µM
[35] = second compound 10 µM, first compound 3.16 µM
[36] = second compound 10 µM, first compound 10 µM
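Further: spheroids exposed to drugs for 7 days.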
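Wherever viability, T/C is given: 100% = DMSO vehicle treated spheroids.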

COc1cccc2c1C(=O)c1c(O)c3c(c(O)c1C2=O)CC(O)(C(=O)CO)CC3OC1CC(N)C(O)C(C)O1 (stereo not drawn) + Nc1ccc(C#CCN(C(=O)Cc2ncc(C(F)(F)F)cc2C(F)(F)F)c2ccc(F)cc2)nn1
IC50 (second compound 0.0316 µM): < 0.0316 µM | IC50 (second compound 0.1 µM): < 0.0316 µM | IC50 (second compound 0.316 µM): < 0.0316 µM | IC50 (second compound 1 µM): < 0.0316 µM | IC50 (second compound 3.16 µM): < 0.0316 µM | IC50 (second compound 10 µM): < 0.0316 µM | viability, T/C [1]: 39.1% | viability, T/C [2]: 8.96% | viability, T/C [3]: 4.51% | viability, T/C [4]: 0.95% | viability, T/C [5]: 0.91% | viability, T/C [6]: 1.45% | viability, T/C [7]: 47.5% | viability, T/C [8]: 11.3% | viability, T/C [9]: 7.5% | viability, T/C [10]: 1.92% | viability, T/C [11]: 1.44% | viability, T/C [12]: 1.04% | viability, T/C [13]: 38% | viability, T/C [14]: 13.6% | viability, T/C [15]: 5.83% | viability, T/C [16]: 0.57% | viability, T/C [17]: 1.8% | viability, T/C [18]: 1.29% | viability, T/C [19]: 47.9% | viability, T/C [20]: 10% | viability, T/C [21]: 4.77% | viability, T/C [22]: 0.51% | viability, T/C [23]: 1.35% | viability, T/C [24]: 0.99% | viability, T/C [25]: 32.4% | viability, T/C [26]: 13.9% | viability, T/C [27]: 4.86% | viability, T/C [28]: 1.22% | viability, T/C [29]: 1.11% | viability, T/C [30]: 1% | viability, T/C [31]: 35.3% | viability, T/C [32]: 14.7% | viability, T/C [33]: 3.59% | viability, T/C [34]: 1.41% | viability, T/C [35]: 0.94% | viability, T/C [36]: 1.07%

COc1cc(C2c3cc4c(cc3C(OC3OC5COC(C)OC5C(O)C3O)C3COC(=O)C23)OCO4)cc(OC)c1O (stereo not drawn) + COC1C(OC(N)=O)C(O)C(Oc2ccc3c(O)c(NC(=O)c4ccc(O)c(CC=C(C)C)c4)c(=O)oc3c2C)OC1(C)C
IC50 (second compound 0.0316 µM): 0.69 µM | IC50 (second compound 0.1 µM): 0.237 µM | IC50 (second compound 0.316 µM): 0.254 µM | IC50 (second compound 1 µM): 0.539 µM | IC50 (second compound 3.16 µM): 0.274 µM | IC50 (second compound 10 µM): 0.588 µM | viability, T/C [1]: 77.1% | viability, T/C [2]: 78.6% | viability, T/C [3]: 46% | viability, T/C [4]: 61% | viability, T/C [5]: 12.8% | viability, T/C [6]: 6.71% | viability, T/C [7]: 95.9% | viability, T/C [8]: 58.9% | viability, T/C [9]: 44% | viability, T/C [10]: 38.7% | viability, T/C [11]: 13% | viability, T/C [12]: 7.35% | viability, T/C [13]: 118% | viability, T/C [14]: 70.7% | viability, T/C [15]: 40.2% | viability, T/C [16]: 36.7% | viability, T/C [17]: 14.5% | viability, T/C [18]: 6.69% | viability, T/C [19]: 88.3% | viability, T/C [20]: 67.1% | viability, T/C [21]: 63.5% | viability, T/C [22]: 41.2% | viability, T/C [23]: 18.5% | viability, T/C [24]: 7.04% | viability, T/C [25]: 109% | viability, T/C [26]: 60.7% | viability, T/C [27]: 53.2% | viability, T/C [28]: 36.3% | viability, T/C [29]: 10.2% | viability, T/C [30]: 7.78% | viability, T/C [31]: 111% | viability, T/C [32]: 70.2% | viability, T/C [33]: 57.8% | viability, T/C [34]: 52.3% | viability, T/C [35]: 14.9% | viability, T/C [36]: 5.69%

CC(C)n1c(=O)n(C)c2cnc3cc(F)c(-c4ccc(OCCCN5CCCCC5)nc4)cc3c21 + COC1C(OC(N)=O)C(O)C(Oc2ccc3c(O)c(NC(=O)c4ccc(O)c(CC=C(C)C)c4)c(=O)oc3c2C)OC1(C)C
IC50 (second compound 0.0316 µM): 4.59 µM | IC50 (second compound 0.1 µM): 5.03 µM | IC50 (second compound 0.316 µM): 8.57 µM | IC50 (second compound 1 µM): 5.25 µM | IC50 (second compound 3.16 µM): > 10 µM | IC50 (second compound 10 µM): 6.35 µM | viability, T/C [1]: 81.5% | viability, T/C [2]: 65.5% | viability, T/C [3]: 81.1% | viability, T/C [4]: 59.1% | viability, T/C [5]: 60% | viability, T/C [6]: 36.8% | viability, T/C [7]: 73.7% | viability, T/C [8]: 100% | viability, T/C [9]: 78.3% | viability, T/C [10]: 69.8% | viability, T/C [11]: 65.2% | viability, T/C [12]: 31.6% | viability, T/C [13]: 74.5% | viability, T/C [14]: 76.7% | viability, T/C [15]: 68.2% | viability, T/C [16]: 68.3% | viability, T/C [17]: 79.8% | viability, T/C [18]: 46.5% | viability, T/C [19]: 86.7% | viability, T/C [20]: 86.5% | viability, T/C [21]: 87% | viability, T/C [22]: 102% | viability, T/C [23]: 64.5% | viability, T/C [24]: 31.6% | viability, T/C [25]: 81.8% | viability, T/C [26]: 68.5% | viability, T/C [27]: 92.9% | viability, T/C [28]: 93.8% | viability, T/C [29]: 66.1% | viability, T/C [30]: 50.6% | viability, T/C [31]: 76.1% | viability, T/C [32]: 65.9% | viability, T/C [33]: 66.1% | viability, T/C [34]: 82% | viability, T/C [35]: 62.1% | viability, T/C [36]: 40.1%

CCc1cc2c(N3CCc4c(cc(Cn5ccnc5)cc4-c4cn(C)nc4C(F)(F)F)C3=O)ccnc2c(OC)n1 + COC1C(OC(N)=O)C(O)C(Oc2ccc3c(O)c(NC(=O)c4ccc(O)c(CC=C(C)C)c4)c(=O)oc3c2C)OC1(C)C
IC50 (second compound 0.0316 µM): > 10 µM | IC50 (second compound 0.1 µM): > 10 µM | IC50 (second compound 0.316 µM): > 10 µM | IC50 (second compound 1 µM): > 10 µM | IC50 (second compound 3.16 µM): > 10 µM | IC50 (second compound 10 µM): > 10 µM | viability, T/C [1]: 98.9% | viability, T/C [2]: 72.2% | viability, T/C [3]: 61.1% | viability, T/C [4]: 73.3% | viability, T/C [5]: 63.3% | viability, T/C [6]: 70% | viability, T/C [7]: 92.7% | viability, T/C [8]: 77.8% | viability, T/C [9]: 96.2% | viability, T/C [10]: 78.8% | viability, T/C [11]: 61.2% | viability, T/C [12]: 81.2% | viability, T/C [13]: 100% | viability, T/C [14]: 98.3% | viability, T/C [15]: 70.6% | viability, T/C [16]: 66.1% | viability, T/C [17]: 86.4% | viability, T/C [18]: 63.7% | viability, T/C [19]: 91.6% | viability, T/C [20]: 75.7% | viability, T/C [21]: 94.1% | viability, T/C [22]: 85.3% | viability, T/C [23]: 68.1% | viability, T/C [24]: 69% | viability, T/C [25]: 91.9% | viability, T/C [26]: 77.3% | viability, T/C [27]: 81.7% | viability, T/C [28]: 73.8% | viability, T/C [29]: 74.3% | viability, T/C [30]: 54% | viability, T/C [31]: 91.7% | viability, T/C [32]: 77.6% | viability, T/C [33]: 67.1% | viability, T/C [34]: 81.2% | viability, T/C [35]: 64.3% | viability, T/C [36]: 58.9%
